# According to ChEMBL document CHEMBL5725517, “Azapeptides as CD36 binding compounds” (2017):
# Starred links: 1 amine or outer side, 2 acyl side, 3 side chain; linkers in the order of their positions; H or OH if unused. Non-standard residues stand in square brackets, D forms with d. Residues, ends and D or L forms follow the SMILES beside them. X4 = O=C(N(Cc1ccc(-c2ccccc2)cc1)N[*:1])[*:2]; azaTyr = O=C(N(Cc1ccc(O)cc1)N[*:1])[*:2]; X3 = O=C(N(Cc1cccc2ccccc12)N[*:1])[*:2]; azaPhe = O=C(N(Cc1ccccc1)N[*:1])[*:2]; X2 = O=C(N(CCc1ccccc1)N[*:1])[*:2]; azaLeu = CC(C)CN(N[*:1])C(=O)[*:2]; X1 = O=C(N(CC1CCCCC1)N[*:1])[*:2]
# Test: HS-R1a radioreceptor assay: GHS-R1a radioreceptor assay using LLCPK-1 membranes overexpressing GSH-R1a and radioiodinated (1-28) rat ghrelin as tracer.
row,EC50,Structure (SMILES)
1,1.2 µM,CC(C)CN(NC(=O)[C@@H](Cc1c[nH]c2ccccc12)NC(=O)[C@@H](N)Cc1cnc[nH]1)C(=O)N[C@@H](Cc1c[nH]c2ccccc12)C(=O)N[C@H](Cc1ccccc1)C(=O)N[C@@H](CCCCN)C(N)=O (H-H[dW][azaLeu]W[dF]K-NH2)
2,19.5 µM,CC(C)CN(NC(=O)[C@H](C)NC(=O)[C@@H](Cc1c[nH]c2ccccc12)NC(=O)[C@@H](N)Cc1cnc[nH]1)C(=O)N[C@H](Cc1ccccc1)C(=O)N[C@@H](CCCCN)C(N)=O (H-H[dW]A[azaLeu][dF]K-NH2)
3,3.25 µM,C[C@H](NC(=O)[C@@H](Cc1c[nH]c2ccccc12)NC(=O)[C@@H](N)Cc1cnc[nH]1)C(=O)N[C@H](Cc1ccc(O)cc1)C(=O)N[C@H](Cc1ccccc1)C(=O)N[C@@H](CCCCN)C(N)=O (H-H[dW]A[dY][dF]K-NH2)
4,0.771 µM,C[C@H](NC(=O)[C@@H](Cc1c[nH]c2ccccc12)NC(=O)[C@@H](N)Cc1cnc[nH]1)C(=O)N[C@@H](Cc1ccc(O)cc1)C(=O)N[C@H](Cc1ccccc1)C(=O)N[C@@H](CCCCN)C(N)=O (H-H[dW]AY[dF]K-NH2)
5,4.28 µM,C[C@H](NC(=O)[C@@H](Cc1c[nH]c2ccccc12)NC(=O)[C@@H](N)Cc1cnc[nH]1)C(=O)NN(CC1CCCCC1)C(=O)N[C@H](Cc1ccccc1)C(=O)N[C@@H](CCCCN)C(N)=O (H-H[dW]A[X1][dF]K-NH2)
6,3.74 µM,C[C@H](NC(=O)[C@@H](Cc1c[nH]c2ccccc12)NC(=O)[C@@H](N)Cc1cnc[nH]1)C(=O)NN(CCc1ccccc1)C(=O)N[C@H](Cc1ccccc1)C(=O)N[C@@H](CCCCN)C(N)=O (H-H[dW]A[X2][dF]K-NH2)
7,5.49 µM,C[C@H](NC(=O)N(CC1CCCCC1)NC(=O)[C@@H](N)Cc1cnc[nH]1)C(=O)N[C@@H](Cc1c[nH]c2ccccc12)C(=O)N[C@H](Cc1ccccc1)C(=O)N[C@@H](CCCCN)C(N)=O (H-H[X1]AW[dF]K-NH2)
8,15.7 µM,C[C@H](NC(=O)[C@@H](Cc1c[nH]c2ccccc12)NC(=O)[C@@H](N)Cc1cnc[nH]1)C(=O)NN(Cc1ccc(O)cc1)C(=O)N[C@H](Cc1ccccc1)C(=O)N[C@@H](CCCCN)C(N)=O (H-H[dW]A[azaTyr][dF]K-NH2)

row,Structure (SMILES),EC50
1,C[C@H](NC(=O)[C@@H](Cc1c[nH]c2ccccc12)NC(=O)[C@@H](N)Cc1cnc[nH]1)C(=O)NN(Cc1ccccc1)C(=O)N[C@H](Cc1ccccc1)C(=O)N[C@@H](CCCCN)C(N)=O (H-H[dW]A[azaPhe][dF]K-NH2),2.77 µM
2,C[C@H](NC(=O)N(Cc1ccccc1)NC(=O)[C@@H](N)Cc1cnc[nH]1)C(=O)N[C@@H](Cc1c[nH]c2ccccc12)C(=O)N[C@H](Cc1ccccc1)C(=O)N[C@@H](CCCCN)C(N)=O (H-H[azaPhe]AW[dF]K-NH2),16.1 µM
3,C[C@H](NC(=O)[C@@H](Cc1c[nH]c2ccccc12)NC(=O)[C@@H](N)Cc1cnc[nH]1)C(=O)NN(Cc1ccc(-c2ccccc2)cc1)C(=O)N[C@H](Cc1ccccc1)C(=O)N[C@@H](CCCCN)C(N)=O (H-H[dW]A[X4][dF]K-NH2),1.34 µM
4,C[C@H](NC(=O)[C@@H](Cc1c[nH]c2ccccc12)NC(=O)[C@@H](N)Cc1cnc[nH]1)C(=O)NN(Cc1cccc2ccccc12)C(=O)N[C@H](Cc1ccccc1)C(=O)N[C@@H](CCCCN)C(N)=O (H-H[dW]A[X3][dF]K-NH2),0.723 µM
